Experimental data from publication PMC3723878 (PLoS ONE, 2013).
Where a chain is given by its changes, count along the chain named.

Key:
α1A-AR [1] = molecular target: T1, α1A-AR (Homo sapiens, UniProt P35348); assay: Intracellular Ca^2+ release in CHO-K1 cells expressing the α1A-AR; type: cell-based; set-up: expressed in transfected cells; details: for Emax: CHO-K1, read-out: Emax, Ca^2+ release
T1 sequence (P35348 1-466): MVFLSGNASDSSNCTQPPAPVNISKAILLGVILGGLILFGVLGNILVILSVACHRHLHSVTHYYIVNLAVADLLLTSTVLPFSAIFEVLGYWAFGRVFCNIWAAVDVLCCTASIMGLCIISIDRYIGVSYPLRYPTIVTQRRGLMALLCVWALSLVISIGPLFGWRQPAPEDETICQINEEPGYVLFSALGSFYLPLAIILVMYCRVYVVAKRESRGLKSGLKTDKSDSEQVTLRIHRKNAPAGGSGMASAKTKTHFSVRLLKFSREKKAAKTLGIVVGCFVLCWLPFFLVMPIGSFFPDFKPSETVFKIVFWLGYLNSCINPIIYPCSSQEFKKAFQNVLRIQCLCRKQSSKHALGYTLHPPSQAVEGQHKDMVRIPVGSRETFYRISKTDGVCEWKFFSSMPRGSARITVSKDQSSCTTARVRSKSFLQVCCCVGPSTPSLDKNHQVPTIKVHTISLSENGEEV
Protocol: (§1) CHO cells stably expressing α1-ARs were kindly provided by Dr. Hervé Paris (INSERM U858, Toulouse, France) and were grown in a 50∶50 Dulbecco's Modified Eagle's Medium (DMEM)/Ham's F12 medium supplemented with 10% (v/v) foetal bovine serum (FBS), glutamine (2 mM), penicillin (100 units/ml) and streptomycin (100 µg/ml) at 37°C with 5% CO2. COS-7 cells were grown at 37°C under 5% CO2 in Dulbecco's modified Eagle's medium containing 10% fetal calf serum, 1% penicillin and 1% glutamine (Sigma-Aldrich, St Quentin-Fallavier, France). At 80% confluence, the cells were transfected using a calcium phosphate precipitation method for transient expression of the genetic construct. After 48 h incubation at 37°C, cells were harvested and the membranes were prepared as follow. Cells were washed with ice-cold phosphate buffer and centrifuged at 1700 g for 10 min (4°C). The pellet was suspended in ice-cold buffer (1 mM EDTA, 25 mM sodium phosphate, and 5 mM MgCl2, pH 7.4) and homogenized using an Potter-Elvehjem homogenizer (Fisher Scientific Labosi, Elancourt, France). The homogenate was centrifuged at 1700 g for 15 min (4°C). The sediment was resuspended in buffer, homogenized, and centrifuged at 1700 g for 15 min (4°C). The combined supernatants were centrifuged at 35,000 g for 30 min (4°C), and the pellet was suspended in the same buffer (0.1 ml/dish). […] Cells were grown in a 50∶50 Dulbecco's Modified Eagle's Medium (DMEM)/Ham's F12 medium supplemented with 10% (v/v) foetal bovine serum (FBS), glutamine (2 mM), penicillin (100 units/ml) and streptomycin (100 µg/ml) at 37°C with 5% CO2. Media was changed every 2–3 days and cells were passaged when confluent with 0.05% trypsin and 0.02% EDTA.
All experiments were performed in duplicate.

α1D-AR = molecular target: α1D-AR; set-up: method as in PMID 20015090; details: α1D-AR expressed in yeast; read-out: affinity; cited from earlier work
α1A-AR [2] = test system: α1A-AR; set-up: method as in PMID 20015090; details: cited from earlier work
α1B-AR = molecular target: α1B-AR; set-up: method as in PMID 20015090; details: α1B-AR expressed in yeast; read-out: affinity; cited from earlier work
[3] = molecular target: T2, human α1A-AR F187A variant (Homo sapiens, UniProt P35348, F187A); assay: Saturation binding of ^125I-HEAT; details: F187A variant relative to wild type
T2 construct: expressed in transfected cells; host or cells: COS-7, transient (calcium phosphate)
T2 sequence (P35348 1-466 F187A): T1 sequence (P35348 1-466) with F187A
Description: (§2) α1A-AR cDNA inserted in the prK5 vector was kindly provided by Michael Brownstein (Craig Venter Institute, Rockville, MD). Point mutations were introduced into the α1A-AR gene by sense and antisense primers (Sigma-Aldrich, St Quentin-Fallavier, France) containing the desired changes, using the QuikChange Site-Directed Mutagenesis kit. The incorporation of each mutation was verified by DNA sequencing.
as §1
(§3) Binding experiments were performed in a 100 µL reaction mix at room temperature in buffer composed of 50 mM Tris-HCl, pH 7.4, 10 mM MgCl2, 1 g/L BSA. Reactions were stopped by filtration through 96 GF/C filter plates pre-incubated with 0.5% polyethylenimine.
(§4) Binding data were analyzed by nonlinear regression using the KaleidaGraph 4.0 software (Synergy software, Reading, PA). pKD values and Bmax (number of binding sites) were determined by applying a nonlinear regression to data obtained with saturation binding assays. The nonlinear regression used was BS = (Bmax*A)/KD+A, where BS is the specific binding, Bmax the number of binding sites, A the concentration of radioligand, and KD the dissociation constant of the radioligand. Data resulting from competition binding assays were analyzed using the Hill equation for IC50 and curve slope estimations. […] The linear curves were analyzed with IC50 = Ki+(L/KD)*Ki. Dissociation kinetics were analyzed using a simple equation of exponential decay BS * exp (-Koff*t), where BS is the specific binding at time zero and Koff is the dissociation rate constant. Results are expressed as mean ± s.e. mean from n independent experiments. One-way Anova test was used to compare values. A p<0.05 was accepted for statistical significance.

α1A-AR [4] = molecular target: T1, α1A-AR; assay: Competition binding with ^3H-prazosin; set-up: expressed in transfected cells; details: inhibition of ^3H-prazosin 2 nM
Protocol: CHO cells stably expressing α1-ARs were kindly provided by Dr. Hervé Paris (INSERM U858, Toulouse, France) and were grown in a 50∶50 Dulbecco's Modified Eagle's Medium (DMEM)/Ham's F12 medium supplemented with 10% (v/v) foetal bovine serum (FBS), glutamine (2 mM), penicillin (100 units/ml) and streptomycin (100 µg/ml) at 37°C with 5% CO2. COS-7 cells were grown at 37°C under 5% CO2 in Dulbecco's modified Eagle's medium containing 10% fetal calf serum, 1% penicillin and 1% glutamine (Sigma-Aldrich, St Quentin-Fallavier, France). At 80% confluence, the cells were transfected using a calcium phosphate precipitation method for transient expression of the genetic construct. […]
as §4, with “The nonlinear regression used was BS = (Bmax*A)/KD+A, where BS is the specific binding, Bmax the number of binding sites, A the concentration of radioligand, and KD the dissociation constant of the radioligand.” left out, “One-way Anova test was used to compare values. A p<0.05 was accepted for statistical significance.” left out

human α1A-AR WT = molecular target: T3, human α1A-AR WT (Homo sapiens, UniProt P35348); assay: Competition binding with ^125I-HEAT, wild type receptor
T3 construct: expressed in transfected cells; host or cells: COS-7, transient (calcium phosphate)
T3 sequence (P35348 1-466): T1 sequence (P35348 1-466)
Protocol: as §1, §3
as §4, with “The nonlinear regression used was BS = (Bmax*A)/KD+A, where BS is the specific binding, Bmax the number of binding sites, A the concentration of radioligand, and KD the dissociation constant of the radioligand.” left out, “One-way Anova test was used to compare values. A p<0.05 was accepted for statistical significance.” left out

[5] = molecular target: T4, human α1A-AR D106A variant (Homo sapiens, UniProt P35348, D106A); assay: Competition binding with ^125I-HEAT
T4 construct: expressed in transfected cells; host or cells: COS-7, transient (calcium phosphate)
T4 sequence (P35348 1-466 D106A): T1 sequence (P35348 1-466) with D106A
Description: as §2
as §1, with “Media was changed every 2–3 days and cells were passaged when confluent with 0.05% trypsin and 0.02% EDTA.” left out
as §4, with “The nonlinear regression used was BS = (Bmax*A)/KD+A, where BS is the specific binding, Bmax the number of binding sites, A the concentration of radioligand, and KD the dissociation constant of the radioligand.” left out, “One-way Anova test was used to compare values. A p<0.05 was accepted for statistical significance.” left out

[6] = molecular target: T5, human α1A-AR F86A variant (Homo sapiens, UniProt P35348, F86A); assay: Competition binding with ^125I-HEAT
T5 construct: expressed in transfected cells; host or cells: COS-7, transient (calcium phosphate)
T5 sequence (P35348 1-466 F86A): T1 sequence (P35348 1-466) with F86A
Description: as §2
as §1, with “Media was changed every 2–3 days and cells were passaged when confluent with 0.05% trypsin and 0.02% EDTA.” left out
as §4, with “The nonlinear regression used was BS = (Bmax*A)/KD+A, where BS is the specific binding, Bmax the number of binding sites, A the concentration of radioligand, and KD the dissociation constant of the radioligand.” left out, “One-way Anova test was used to compare values. A p<0.05 was accepted for statistical significance.” left out

[7] = linear fit of ρ-Da1a IC50 against ^125I-HEAT concentration

NC[C@H](O)c1ccc(O)c(O)c1 [noradrenaline]
Emax (α1A-AR [1]): 77.8 ± 1.5%

Cc1cc(C(C)(C)C)c(O)c(C)c1CC1=NCCN1 [oxymetazoline]
Emax (α1A-AR [1]): 60.8 ± 1.3%

ρ-Da1a
Ki (α1D-AR): 420 nM
displacement of ^3H-prazosin binding (α1A-AR [2]; yeast membranes expressing the α1A-AR): 85%
Ki (α1A-AR [2]; α1A-AR expressed in yeast, read-out: affinity): 0.35 nM
Ki (α1B-AR): 317 nM

O=C1c2ccccc2CCC1CNCCc1ccc(O)cc1 (stereo not shown) [HEAT]
increase in HEAT affinity [3]: 4.5 fold
Hill slope (α1A-AR [4]): 0.85
pKi (α1A-AR [4]; n = 3): 9.66±0.08 nM
Ratio (Ki relative to WT) (human α1A-AR WT; WT): 1
pKi (human α1A-AR WT; WT, competition with ^125I-HEAT 200 pM): 9.57±0.08
Kd (human α1A-AR WT; [7]): 0.0435 nM
pKd (human α1A-AR WT; [7]): 10.36
Ratio (reduction of affinity relative to WT) [5]: 0.67
pKi ([5]; competition with ^125I-HEAT 200 pM): 9.74±0.12
Ratio (reduction of affinity relative to WT) [6]: 23 ^*
pKi ([6]; competition with ^125I-HEAT […]): 8.21±0.09

CNC[C@H](O)c1cccc(O)c1 [phenylephrine]
Emax (α1A-AR [1]): 64.8 ± 2.4%

CS(=O)(=O)Nc1c(O)ccc2c1CCCC2C1=NCCN1 (stereo not shown) [A61603]
Emax, Ca^2+ release (α1A-AR [1]; CHO-K1 cells expressing the α1A-AR, agonist alone, A23187 1 µM): 75.5±1.3 percentage of peak A23187 response
